From patent US7282608B2, “Inhibitors of histone deacetylase” (Methylgene, Inc., priority 2002, dated 2007)
pEC50, pIC50: −log10 of the molar value. Read-outs that look alike come from different tables or passages of the source.

Columns and labels:
[1] = molecular target: T1, cloned recombinant human HDAC-1 (Homo sapiens, UniProt Q13547); experiment: Human HDAC-1 Assay 1: [3H]-acetylated histone deacetylase assay; format: biochemical; settings: Assay 1, unbracketed data; [3H]-acetylated histone substrate, 10 min at 37° C.
T1 construct: made in house; host or cells: Baculovirus insect cell expression system
T1 sequence (Q13547 whole entry): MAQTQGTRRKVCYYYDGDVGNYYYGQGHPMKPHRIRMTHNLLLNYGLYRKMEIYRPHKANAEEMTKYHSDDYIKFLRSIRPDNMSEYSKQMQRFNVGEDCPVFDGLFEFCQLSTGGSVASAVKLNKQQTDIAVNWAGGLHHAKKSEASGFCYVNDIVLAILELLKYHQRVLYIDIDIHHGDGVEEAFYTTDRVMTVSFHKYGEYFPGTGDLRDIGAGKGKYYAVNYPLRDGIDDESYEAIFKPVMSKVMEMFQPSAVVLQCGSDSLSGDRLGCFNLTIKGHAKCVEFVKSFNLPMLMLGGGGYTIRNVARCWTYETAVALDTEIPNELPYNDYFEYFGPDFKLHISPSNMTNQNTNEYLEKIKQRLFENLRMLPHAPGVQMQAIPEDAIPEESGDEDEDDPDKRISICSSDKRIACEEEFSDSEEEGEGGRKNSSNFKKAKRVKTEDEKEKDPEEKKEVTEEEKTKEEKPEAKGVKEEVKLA
Procedure: HDAC inhibitors were screened against a cloned recombinant human HDAC-1 enzyme expressed and purified from a Baculovirus insect cell expression system. For deacetylase assays, 20,000 cpm of the [^3H]-metabolically labeled acetylated histone substrate (M. Yoshida et al., J. Biol. Chem. 265(28): 17174–17179 (1990)) was incubated with 30 μg of the cloned recombinant hHDAC-1 for 10 minutes at 37° C. The reaction was stopped by adding acetic acid (0.04 M, final concentration) and HCl (250 mM, final concentration). […] For inhibition studies, the enzyme was preincubated with compounds at 4° C. for 30 minutes prior to initiation of the enzymatic assay. IC50 values for HDAC enzyme inhibitors were determined by performing dose response curves with individual compounds and determining the concentration of inhibitor producing fifty percent of the maximal inhibition. IC50 values for representative compounds assayed using this procedure are presented in the third column of Tables 7–10 (excepting bracketed data).

HCT116 cells = experiment: MTT assay; format: cell-based; settings: Homo sapiens, HCT-116, 72 hours
Procedure: HCT116 cells (2000/well) were plated into 96-well tissue culture plates one day before compound treatment. Compounds at various concentrations were added to the cells. The cells were incubated for 72 hours at 37° C. in 5% CO2 incubator. MTT (3-[4,5-dimethylthiazol-2-yl]-2,5 diphenyl tetrazolium bromide, Sigma) was added at a final concentration of 0.5 mg/ml and incubated with the cells for 4 hours before one volume of solubilization buffer (50% N,N-dimethylformamide, 20% SDS, pH 4.7) was added onto the cultured cells. After overnight incubation, solubilized dye was quantified by colorimetric reading at […] using a reference at […] using an MR700 plate reader (Dynatech Laboratories Inc.). OD values were converted to cell numbers according to a standard growth curve of the relevant cell line. The concentration which reduces cell numbers to 50% of that of solvent treated cells is determined as MTT IC50. IC50 values for representative compounds are presented in the fourth column of Tables 7–10.

[2] = system: acetylated histone H-4 in T24 human bladder cancer cells; experiment: Histone H4 acetylation in whole cells by immunoblots; format: cell-based; settings: 16 h, read-out: H4 Ac (T24) EC50
Procedure: T24 human bladder cancer cells growing in culture were incubated with HDAC inhibitors for 16 h. Histones were extracted from the cells after the culture period as described by M. Yoshida et al. (J. Biol. Chem. 265(28): 17174–17179 (1990)). […] of total histone protein was loaded onto SDS/PAGE and transferred to nitrocellulose membranes. Membranes were probed with polyclonal antibodies specific for acetylated histone H-4 (Upstate Biotech Inc.), followed by horse radish peroxidase conjugated secondary antibodies (Sigma). Enhanced Chemiluminescence (ECL) (Amersham) detection was performed using Kodak films (Eastman Kodak). Acetylated H-4 signal was quantified by densitometry. Representative data are presented in the fifth column of Table 7–10. Data are presented as the concentration effective for […] the acetylated H-4 signal by 50% (EC50).

| pIC50 [1] | pIC50 (HCT116 cells) | pEC50 ([2]; immunoblot densitometry) | pEC50 ([2]; code 9999 of the footnote) | SMILES |
| --- | --- | --- | --- | --- |
| 5.52 | 6.22 | 5.52 | – | COc1cc(/C=C/C(=O)c2ccc(C(=O)Nc3ccccc3N)cc2)cc(OC)c1OC [Id, N-(2-Amino-phenyl)-4-[3-(3,4,5-trimethoxy-phenyl)-acryloyl]-benzamide] |
| 5.70 | 6.05 | 5.30 | – | Nc1ccccc1NC(=O)c1ccc(C(=O)/C=C/c2cccnc2)cc1 [Ib, N-(2-Amino-phenyl)-4-(3-pyridin-3-yl-acryloyl)-benzamide] |
| 5.40 | 6.40 | 5.52 | – | Nc1ccccc1NC(=O)c1ccc(/C=C/C(=O)c2ccccc2)cc1 [XXIVa, N-(2-Amino-phenyl)-4-(3-oxo-3-phenyl-propenyl)-benzamide] |
| 5.52 | 7.15 | 6.00 | – | Nc1ccccc1NC(=O)c1ccc(/C=C/C(=O)NCc2cccnc2)cc1 [Vb, N-(2-Amino-phenyl)-4-{2-[(pyridin-3-ylmethyl)-carbamoyl]-vinyl}-benzamide] |
| 5.10 | 7.00 | 5.52 | – | Nc1ccccc1NC(=O)c1ccc(/C=C/C(=O)c2ccccc2[N+](=O)[O-])cc1 [XXIVb, N-(2-Amino-phenyl)-4-[3-(2-nitro-phenyl)-3-oxo-propenyl]-benzamide] |
| 5.70 | 6.30 | 6.00 | – | CSc1nc(NC/C=C/c2ccc(C(=O)Nc3ccccc3N)cc2)n[nH]1 [XVe, N-(2-Amino-phenyl)-4-[3-(5-methylsulfanyl-1H-[1,2,4]triazol-3-ylamino)-propenyl]-benzamide] |
| 5.40 | 6.15 | 5.30 | – | COc1ccc(/C=C/C(=O)c2ccc(C(=O)Nc3ccccc3N)cc2)cc1OC1CCCC1 [Ij, N-(2-Amino-phenyl)-4-[3-(3-cyclopentyloxy-4-methoxy-phenyl)-acryloyl]-benzamide] |
| 5.52 | 6.15 | – | < 4.60 | Nc1ccccc1NC(=O)c1ccc(C(=O)/C=C/c2ccc(OC(F)F)c(OC3CC3)c2)cc1 [Ig, N-(2-Amino-phenyl)-4-[3-(3-cyclopropoxy-4-difluoromethoxy-phenyl)-acryloyl]-benzamide] |
| 5.40 | 6.00 | 5.52 | – | Nc1ccccc1NC(=O)c1ccc(/C=C/C(=O)NCCc2ccccn2)cc1 [Vi, N-(2-Amino-phenyl)-4-[2-(2-pyridin-2-yl-ethylcarbamoyl)-vinyl]-benzamide] |
| 5.30 | 6.00 | 5.30 | – | Nc1ccccc1NC(=O)c1ccc(C(=O)/C=C/c2ccc(C(F)(F)F)cc2)cc1 [Ih, N-(2-Amino-phenyl)-4-[3-(4-trifluoromethyl-phenyl)-acryloyl]-benzamide] |
| 5.40 | 6.15 | 5.70 | – | Nc1ccccc1NC(=O)c1ccc(/C=C/CNCc2cccnc2)cc1 [XVh, N-(2-Amino-phenyl)-4-{3-[(pyridin-3-ylmethyl)-amino]propenyl}-benzamide] |
| 5.52 | 6.05 | 5.70 | – | COc1cc(CNC(=O)/C=C/c2ccc(C(=O)Nc3ccccc3N)cc2)cc(OC)c1OC [Vc, N-(2-Amino-phenyl)-4-[2-(3,4,5-trimethoxy-benzylcarbamoyl)-vinyl]-benzamide] |
| 4.89 | 6.22 | 5.30 | – | COc1ccc(C(=O)/C=C/c2ccc(C(=O)Nc3ccccc3N)cc2)cc1 [XXIVc, N-(2-Amino-phenyl)-4-[3-(4-methoxy-phenyl)-3-oxo-propenyl]-benzamide] |
